These results are taken from ChEMBL document CHEMBL5244222, “A comprehensive review on xanthone derivatives as α-glucosidase inhibitors” (Eur J Med Chem, 2018).

A value given as a limit tells only on which side of the number the result lay.

One experiment concerns the target T1, Alpha-glucosidase (Saccharomyces cerevisiae S288c, UniProt P53341+P38158+P07265). The experiment can be described thus: Inhibition of yeast alpha-glucosidase using p-nitrophenyl-alpha-D-glucopyranoside as substrate incubated for 30 mins by spectrophotometric assay. Type of experiment: protein assay.
Compound `COc1cc2c(=O)c3c(O)c(C/C=C(\C)CCC=C(C)C)c(O)cc3oc2cc1O` [COWAXANTHONE] returned an IC50 of 44 µM.
`COc1c(O)ccc2oc3c4c(c(CC=C(C)C)c(O)c3c(=O)c12)OC(C(C)(O)CCC=C(C)C)C4` (stereo not given) returned an IC50 of 69 µM.
Regarding `C=C(C)/C=C/c1c(O)c(OC)c(/C=C/C(=C)C)c2c(=O)c3c(O)c(CC(O)C(=C)C)c(O)cc3oc12` (stereo not given), the IC50 worked out at 8.3 µM.
Compound `C=C(C)/C=C/c1c(OC)c(OC)cc2oc3cc(O)c(CC(O)C(=C)C)c(O)c3c(=O)c12` (stereo not given) returned a 50% inhibitory concentration (IC50) of 94.4 µM.
Turning to `C=C(C)/C=C/c1c(OC)c(OC)cc2oc3cc(O)c(CC=C(C)C)c(O)c3c(=O)c12`, the IC50 was found to be 18.2 µM.
Still for that read-out and setting: the figure for `CC1Oc2cc(O)c3c(=O)c4c(O)ccc(O)c4oc3c2C1(C)C` (stereo not given) is 21.2 µM.

The target of the next experiment is T1, Alpha-glucosidase. The experiment can be described thus: Inhibition of Saccharomyces cerevisiae alpha-glucosidase using PNPG as substrate incubated for 30 mins by spectrophotometric assay. Type of experiment: protein assay.
Turning to `C=C(C)/C=C/c1c(O)cc2oc3cc(O)c(OC)c(CCC(C)(C)O)c3c(=O)c2c1O`, the IC50 turned out to be 29.9 µM.
Still for that read-out and setting: the figure for `C=C(C)/C=C/c1c(OC)c(O)cc2oc3cc4c(c(O)c3c(=O)c12)C=CC(C)(C)O4` is 34.2 µM; for `C=C(C)/C=C/c1c(OC)cc2c(c1O)Cc1cccc(O)c1O2` it is 58.5 µM.
Still for that read-out and setting: the figure for `C=C(C)/C=C/c1c(OC)cc2c(c1O)Cc1c(O)ccc(O)c1O2` is 50.5 µM; for `C=C(C)/C=C/c1c(OC)c(O)cc2oc3cc4c(c(O)c3c(=O)c12)C=C(O)C(C)(C)O4` it is 31.7 µM.
In turn, `C=C(C)C1Cc2c(c(O)cc3oc4cc(O)c(CC=C(C)C)c(O)c4c(=O)c23)O1` (stereo not given) [MANGOSTENONE G] returned an IC50 of 45 µM.
On the same count and under the same terms, the figure for `C=C(C)/C=C/c1ccc2oc3c(O)cc(OC)c(CC=O)c3c(=O)c2c1O` is 63.5 µM.

The target in another experiment is T1, Alpha-glucosidase. Nature of the experiment: Inhibition of Saccharomyces cerevisiae alpha-glucosidase using pNPG as preincubated for 15 mins followed by substrate addition and measured after 30 mins by spectroscopic analysis.
`COc1cccc2c(=O)c3c(O)cc(O[C@H]4O[C@@H](CO)[C@H](O)[C@H](O)[C@@H]4O)c(OC)c3oc12` returned an IC50 of more than 1000 µM.
Compound `COc1c(OC)c(O[C@H]2O[C@@H](CO[C@H]3OC[C@@H](O)[C@H](O)[C@H]3O)[C@H](O)[C@H](O)[C@@H]2O)c2c(=O)c3c(O)ccc(OC)c3oc2c1OC` returned a concentration for half-maximal inhibition (IC50) of 442 µM.
In the case of `COc1cc(O)c2c(=O)c3c(O[C@H]4O[C@@H](CO[C@H]5OC[C@@H](O)[C@H](O)[C@H]5O)[C@H](O)[C@H](O)[C@@H]4O)ccc(OC)c3oc2c1OC`, the IC50 was found to be 136 µM.
The same measure, in the same setting: the figure for `COc1c(OC)c(O)c2c(=O)c3c(O[C@H]4O[C@@H](CO[C@H]5OC[C@@H](O)[C@H](O)[C@H]5O)[C@H](O)[C@H](O)[C@@H]4O)ccc(OC)c3oc2c1OC` is more than 1000 µM; for `COc1ccc(O)c2c(=O)c3c(O[C@H]4O[C@@H](CO)[C@H](O)[C@H](O)[C@@H]4O)cc(O)c(OC)c3oc12` it is 578 µM.
In turn, `COc1ccc(O)c2c(=O)c3c(O[C@H]4O[C@@H](CO)[C@H](O[C@H]5O[C@@H](CO)[C@H](O)[C@H](O)[C@@H]5O)[C@H](O)[C@@H]4O)cc(O)c(OC)c3oc12` returned an IC50 of 258 µM.
The same measure, in the same setting: the figure for `COc1ccc(O)c2c(=O)c3c(O)cc(O[C@H]4O[C@@H](CO)[C@H](O)[C@H](O)[C@@H]4O)cc3oc12` is more than 1000 µM; for `COc1cc(O)c2c(=O)c3c(O[C@@H]4O[C@H](CO)[C@@H](O)[C@H](O)[C@H]4O)ccc(O)c3oc2c1` [SWERTIANOLIN] it is 389 µM; for `O=c1c2c(O)cc(O)cc2oc2c(O)ccc(O[C@@H]3O[C@H](CO)[C@@H](O)[C@H](O)[C@H]3O)c12` [NORSWERTIANOLIN] it is 679 µM.
`COc1cc(O[C@H]2O[C@@H](CO[C@H]3OC[C@@H](O)[C@H](O)[C@H]3O)[C@H](O)[C@H](O)[C@@H]2O)c2c(=O)c3c(O)ccc(OC)c3oc2c1OC` came in with an IC50 of 142 µM.
Consider `COc1ccc(O)c2c(=O)c3c(O[C@H]4O[C@@H](CO[C@@H]5O[C@@H](CO)[C@H](O)[C@H](O)[C@@H]5O)[C@H](O)[C@H](O)[C@@H]4O)cc(O)c(OC)c3oc12`, for which the IC50 was determined as 478 µM.
On to `COc1ccc(O)c2c(=O)c3c(O[C@H]4O[C@@H](CO[C@H]5OC[C@@H](O)[C@H](O)[C@H]5O)[C@H](O)[C@H](O)[C@@H]4O)cc(O)c(OC)c3oc12`, for which the concentration for half-maximal inhibition (IC50) amounted to 417 µM.

For the next experiment, the target named is T1, Alpha-glucosidase. The experiment can be described thus: Inhibition of Saccharomyces cerevisiae alpha-glucosidase assessed as release of p-nitrophenol using pNPG as substrate preincubated for 15 mins followed by substrate addition and measured after 5 mins by spectrophotometric assay. Type of experiment: protein assay.
Regarding `CO[C@@H]1C2C(=O)[C@H]3C(=C(CC=C(C)C)C4=C(C=CC(C)O4)C3O)O[C@@]23[C@H]2C[C@@H]1C(=O)[C@]3(C/C=C(\C)C(=O)O)OC2(C)C` (stereo not given in full), the half-maximal inhibitory concentration (IC50) was determined as 136.35 µM.
Same read-out and setting: the figure for `C=C(C)/C=C/[C@]1(C)C=CC2=C(O1)C(CC=C(C)C)=C1O[C@]34C(=C[C@@H]5C[C@H]3C(C)(C)O[C@@]4(CC=C(C)C)C5=O)C(=O)[C@@H]1C2O` (stereo not given in full) is 209.2 µM; for `C=C(C)/C=C/[C@@]1(C)C=CC2=C(O1)C(CC=C(C)C)=C1O[C@]34C(C(=O)[C@@H]1C2O)[C@@H](OC)[C@@H]1C[C@H]3C(C)(C)O[C@@]4(C/C=C(\C)C(=O)O)C1=O` (stereo not given in full) it is 282.7 µM.
`C=C(C)/C=C/[C@@]1(C)C=CC2=C(O1)C(CC=C(C)C)=C1O[C@]34C(=C[C@@H]5C[C@H]3C(C)(C)O[C@@]4(CC=C(C)C)C5=O)C(=O)[C@@H]1C2O` (stereo not given in full): the IC50 is more than 300 µM.
Take `CC(C)=CCC/C(C)=C/Cc1c(C)c(CC=C(C)C)c2c(c1O)C(=O)C1=C[C@@H]3C[C@H]4C(C)(C)O[C@@](C/C=C(\C)C(=O)O)(C3=O)[C@@]14O2`: the IC50 is more than 300 µM.
Take `C=C(C)/C=C/[C@@]1(C)C=CC2=C(O1)C(CC=C(C)C)=C1O[C@]34C(C(=O)[C@@H]1C2O)[C@@H](OCC)[C@@H]1C[C@H]3C(C)(C)O[C@@]4(C/C=C(\C)C(=O)O)C1=O` (stereo not given in full): the IC50 is more than 300 µM.
On the same count and under the same terms, the figure for `CC(C)=CCC1=C2O[C@]34C(C[C@@H]5C[C@H]3C(C)(C)O[C@@]4(C/C=C(\C)C(=O)O)C5=O)C(=O)[C@@H]2C(O)C2=C1OC(C)C=C2` (stereo not given in full) is more than 300 µM; for `CC(C)=CCC/C(C)=C/Cc1c(C)c(CC=C(C)C)c2c(c1O)C(=O)C1=C[C@@H]3C[C@H]4C(C)(C)O[C@@](CC=C(C)C)(C3=O)[C@@]14O2` it is more than 300 µM.
`CC(C)=CCC1=C2O[C@]34C(=C[C@@H]5C[C@H]3C(C)(C)O[C@@]4(CC=C(C)C)C5=O)C(=O)[C@@H]2C(O)C2=C1OC(C)C=C2` (stereo not given in full): the IC50 was determined as 140.95 µM.
In the case of `C=C(C)/C=C/C1(C)C=CC2=C(O1)C(CC=C(C)C)=C1O[C@]34C(C(=O)[C@@H]1C2O)[C@@H](O)[C@@H]1C[C@H]3C(C)(C)O[C@@]4(C/C=C(\C)C(=O)O)C1=O` (stereo not given in full), the IC50 is 194.7 µM.
For `C=C(C)C1CCC2(C)CC1c1c(O)c3c(c(CC=C(C)C)c1O2)O[C@]12C(=C[C@@H]4C[C@H]1C(C)(C)O[C@@]2(C/C=C(\C)C(=O)O)C4=O)C3=O` (stereo not given in full), the IC50 is more than 300 µM.
On the same count and under the same terms, the figure for `C=C(C)/C=C/[C@]1(C)C=CC2=C(O1)C(CC=C(C)C)=C1O[C@]34C(C(=O)[C@@H]1C2O)[C@@H](OC)[C@@H]1C[C@H]3C(C)(C)O[C@@]4(C/C=C(\C)C(=O)O)C1=O` (stereo not given in full) is 108.75 µM.
Same read-out and setting: the figure for `C=C(C)/C=C/[C@]1(C)C=CC2=C(O1)C(CC=C(C)C)=C1O[C@]34C(C(=O)[C@@H]1C2O)[C@@H](OCC)[C@@H]1C[C@H]3C(C)(C)O[C@@]4(C/C=C(\C)C(=O)O)C1=O` (stereo not given in full) is 111.8 µM.

The next experiment concerns the target T1, Alpha-glucosidase. The experiment can be described thus: Inhibition of Saccharomyces cerevisiae alpha-glucosidase using maltose as substrate incubated for 30 mins by spectrophotometric assay. In kind it is protein assay.
Regarding `C=C(C)/C=C/c1c(O)cc2oc3cc(O)c(OC)c(CCC(C)(C)O)c3c(=O)c2c1O`, the IC50 came to 140.2 µM.
On the same count and under the same terms, the figure for `C=C(C)/C=C/c1c(OC)c(O)cc2oc3cc4c(c(O)c3c(=O)c12)C=CC(C)(C)O4` is 92.2 µM; for `C=C(C)/C=C/c1c(OC)cc2c(c1O)Cc1cccc(O)c1O2` it is more than 200 µM; for `C=C(C)/C=C/c1c(OC)cc2c(c1O)Cc1c(O)ccc(O)c1O2` it is more than 200 µM.
In the case of `C=C(C)/C=C/c1c(OC)c(O)cc2oc3cc4c(c(O)c3c(=O)c12)C=C(O)C(C)(C)O4`, the IC50 was 155.6 µM.
In the case of `C=C(C)C1Cc2c(c(O)cc3oc4cc(O)c(CC=C(C)C)c(O)c4c(=O)c23)O1` (stereo not given) [MANGOSTENONE G], the IC50 was more than 200 µM.
In turn, `C=C(C)/C=C/c1ccc2oc3c(O)cc(OC)c(CC=O)c3c(=O)c2c1O` gave a half-maximal inhibitory concentration (IC50) of more than 200 µM.
